Legend:
CCRF-CEM = test: Cytotoxicity SRB assay, CCRF-CEM; assay type: cell-based, human; conditions: Leukemia CCRF-CEM, 48 h exposure
Description: (§1) 5a, 5c and 5d was evaluated for in vitro anticancer activity against sixty human tumor cells derived from nine cancer types leukemia, non-small-cell lung, colon, CNS, melanoma, ovarian, prostate, and breast cancer) as shown in (Table 1 and 2). For the compound, dose response curves for each cell line were measured at a minimum of five concentrations at 10 fold dilutions. A protocol of 48 h continuous drug exposure was used and a sulforhodamine B (SRB) protein assay was used to estimate cell viability or growth. The concentration causing 50% cell growth inhibition (GI50), total cell growth inhibition (TGI 0% growth) and 50% cell death (LC50, −50% growth) compared with the control was calculated.

HL-60 (TB) = test: Cytotoxicity SRB assay, HL-60 (TB); assay type: cell-based, human; conditions: Leukemia HL-60 (TB), 48 h exposure
Description: as §1

RPMI-8226 = test: Cytotoxicity SRB assay, RPMI-8226; assay type: cell-based, human; conditions: Leukemia RPMI-8226, 48 h exposure
Description: as §1

NCI-H226 = test: Cytotoxicity SRB assay, NCI-H226; assay type: cell-based, human; conditions: Non-small cell lung NCI-H226, 48 h exposure
Description: as §1

NCI-H23 = test: Cytotoxicity SRB assay, NCI-H23; assay type: cell-based, human; conditions: Non-small cell lung NCI-H23, 48 h exposure
Description: as §1

NCI-H522 = test: Cytotoxicity SRB assay, NCI-H522; assay type: cell-based, human; conditions: Non-small cell lung NCI-H522, 48 h exposure
Description: as §1

HCT-116 = test: Cytotoxicity SRB assay, HCT-116; assay type: cell-based, human; conditions: Colon HCT-116, 48 h exposure
Description: as §1

HCT-15 = test: Cytotoxicity SRB assay, HCT-15; assay type: cell-based, human; conditions: Colon HCT-15, 48 h exposure
Description: as §1

SW-620 = test: Cytotoxicity SRB assay, SW-620; assay type: cell-based, human; conditions: Colon SW-620, 48 h exposure
Description: as §1

SF-539 = test: Cytotoxicity SRB assay, SF-539; assay type: cell-based, human; conditions: CNS SF-539, 48 h exposure
Description: as §1

U251 = test: Cytotoxicity SRB assay, U251; assay type: cell-based, human; conditions: CNS U251, 48 h exposure
Description: as §1

LOX IMVI = test: Cytotoxicity SRB assay, LOX IMVI; assay type: cell-based, human; conditions: Melanoma LOX IMVI, 48 h exposure
Description: as §1

MALME-3M = test: Cytotoxicity SRB assay, MALME-3M; assay type: cell-based, human; conditions: Melanoma MALME-3M, 48 h exposure
Description: as §1

M14 = test: Cytotoxicity SRB assay, M14; assay type: cell-based, human; conditions: Melanoma M14, 48 h exposure
Description: as §1

SK-MEL-5 = test: Cytotoxicity SRB assay, SK-MEL-5; assay type: cell-based, human; conditions: Melanoma SK-MEL-5, 48 h exposure
Description: as §1

UACC-257 = test: Cytotoxicity SRB assay, UACC-257; assay type: cell-based, human; conditions: Melanoma UACC-257, 48 h exposure
Description: as §1

UACC-62 = test: Cytotoxicity SRB assay, UACC-62; assay type: cell-based, human; conditions: Melanoma UACC-62, 48 h exposure
Description: as §1

OVCAR-3 = test: Cytotoxicity SRB assay, OVCAR-3; assay type: cell-based, human; conditions: Ovarian OVCAR-3, 48 h exposure
Description: as §1

786-0 = test: Cytotoxicity SRB assay, 786-0; assay type: cell-based, human; conditions: Renal 786-0, 48 h exposure
Description: as §1

A498 = test: Cytotoxicity SRB assay, A498; assay type: cell-based, human; conditions: Renal A498, 48 h exposure
Description: as §1

ACHN = test: Cytotoxicity SRB assay, ACHN; assay type: cell-based, human; conditions: Renal ACHN, 48 h exposure
Description: as §1

CAKI-1 = test: Cytotoxicity SRB assay, CAKI-1; assay type: cell-based, human; conditions: Renal CAKI-1, 48 h exposure
Description: as §1

TK-10 = test: Cytotoxicity SRB assay, TK-10; assay type: cell-based, human; conditions: Renal TK-10, 48 h exposure
Description: as §1

UO-31 = test: Cytotoxicity SRB assay, UO-31; assay type: cell-based, human; conditions: Renal UO-31, 48 h exposure
Description: as §1

NCI/ADR-RES = test: Cytotoxicity SRB assay, NCI/ADR-RES; assay type: cell-based, human; conditions: Breast NCI/ADR-RES, 48 h exposure
Description: as §1

MDA-MB-231/ATCC = test: Cytotoxicity SRB assay, MDA-MB-231/ATCC; assay type: cell-based, human; conditions: Breast MDA-MB-231/ATCC, 48 h exposure
Description: as §1

[1] = test system: sixty human tumor cells derived from nine cancer types; test: NCI sixty human tumor cell line screen (SRB), all lines / mean graph midpoints; assay type: cell-based; conditions: for Log10 LC50 mean graph midpoint (MG_MID): 50% cell death; for Log10 LC50 mean graph midpoint (MG_MID) / Log10 GI50 mean graph midpoint (MG_MID) / Log10 TGI mean graph midpoint (MG_MID): human tumor cell lines, 48 h exposure, SRB; for Log10 TGI mean graph midpoint (MG_MID): total cell growth inhibition
Description: as §1
The mean graph mid points of log10 TGI and log10 LC50 have shown similar pattern to the log10 GI50 mean graph mid points.

[2] = test system: duplex-form calf thymus DNA (CT-DNA); test: Thermal denaturation studies with calf thymus DNA; assay type: binding; conditions: for Change of DNA melting (ΔTm) over incubation time: 0 hr, 18 hr and 36 hr at 37° C.; for ΔTμ (° C.) after incubation at 37° C. for 0 h / ΔTμ (° C.) after incubation at 37° C. for 18 h: [PBD]:[DNA] molar ratio 1:5, CT-DNA 100 μM, ligand 20 μM, pH 7.00
Description: Compounds were subjected to thermal denaturation studies with duplex-form calf thymus DNA (CT-DNA) using an adaptation of a reported procedure. Working solutions in aqueous buffer (10 mM NaH2PO4/Na2HPO4, 1 mM Na2EDTA, pH 7.00+0.01) containing CT-DNA (100 μm in phosphate) and the PBD (20 μm) were prepared by addition of concentrated PBD solutions in DMSO to obtain a fixed [PBD]/[DNA] molar ratio of 1:5. The DNA-PBD solutions were incubated at 37° C. for 0, 18, and 36 h prior to analysis. Samples were monitored at 260 nm using a Beckman DU-7400 spectrophotometer fitted with high performance temperature controller, and heating was applied at 1° C. min^−1 in the 40-90° C. range. DNA helix coil transition temperatures (Tm) were obtained from the maxima in the (dA260)/dT derivative plots. Results are given as the mean±standard deviation from three determinations and are corrected for the effects of DMSO co-solvent using a linear correction term. Drug-induced alterations in DNA melting behaviour are given by: ΔTm=Tm(DNA+PBD)−Tm (DNA alone), where the Tm value for the PBD-free CT-DNA is 69.0±0.01.
The DNA binding activity for these novel C8-linked quinazoline-PBD hybrids has been examined by thermal denaturation studies using calf thymus (CT) DNA. […] Data for 5a-d and DC-81 are included in Table 4 for comparison.

`COc1cc2c(cc1OCCCCCN1CCN(c3ncnc4ccccc34)CC1)N=C[C@@H]1CCCN1C2=O` [Compound 5c] was tested, and the GI50 (CCRF-CEM) was 32.5 µM, the GI50 (HL-60 (TB)) was 65.2 µM and the GI50 (RPMI-8226) was 45 µM. The GI50 (NCI-H226) was 17.8 µM, the GI50 (NCI-H23) was 15.8 µM and the GI50 (NCI-H522) was 65.3 µM. It also gave a GI50 (HCT-116) of 21 µM, a GI50 (HCT-15) of 29.7 µM and a GI50 (SW-620) of 17.6 µM. For the same compound, the GI50 (SF-539) was 30.3 µM, the GI50 (U251) was 15.8 µM and the GI50 (LOX IMVI) was 18.2 µM. The GI50 (MALME-3M) was 24.2 µM, the GI50 (M14) was 14.5 µM and the GI50 (SK-MEL-5) was 20.9 µM. It also gave a GI50 (UACC-257) of 22.9 µM, a GI50 (UACC-62) of 15.1 µM and a GI50 (OVCAR-3) of 24.9 µM. The GI50 (786-0) was 18.4 µM, the GI50 (A498) was 20.1 µM and the GI50 (ACHN) was 22 µM. The GI50 (CAKI-1) was 25.8 µM, the GI50 (TK-10) was 38.2 µM and the GI50 (UO-31) was 22.1 µM. For the same compound, the GI50 (NCI/ADR-RES) was 17.7 µM, the GI50 (MDA-MB-231/ATCC) was 19.9 µM and the “Log10 LC50 mean graph midpoint (MG_MID)” value [1] was −4.19. For the same compound, the “Log10 GI50 mean graph midpoint (MG_MID)” value [1] was −5.68, the “Log10 TGI mean graph midpoint (MG_MID)” value [1] was −4.86 and the “Change of DNA melting (ΔTm) over incubation time” value (shortened to “Change of DNA melting (ΔTm)”) [2] was “gradually increased”. For the same compound, the “ΔTμ (° C.) after incubation at 37° C. for 0 h” value [2] was 10.3 °C and the “ΔTμ (° C.) after incubation at 37° C. for 18 h” value [2] was 11.8 °C.
For `COc1cc2c(cc1OCCCN1CCN(c3ncnc4ccccc34)CC1)N=C[C@@H]1CCCN1C2=O` [Compound 5a], the GI50 (CCRF-CEM) was 12 µM, the GI50 (HL-60 (TB)) was 13 µM and the GI50 (RPMI-8226) was 10 µM. It also gave a GI50 (NCI-H226) of 10 µM, a GI50 (NCI-H23) of 13.9 µM and a GI50 (NCI-H522) of 10.4 µM. The GI50 (HCT-116) was 11.9 µM, the GI50 (HCT-15) was 27.5 µM and the GI50 (SW-620) was 11.7 µM. It also gave a GI50 (SF-539) of 12.6 µM, a GI50 (U251) of 10 µM and a GI50 (LOX IMVI) of 10 µM. It also gave a GI50 (MALME-3M) of 18.2 µM, a GI50 (M14) of 10.1 µM and a GI50 (SK-MEL-5) of 10 µM. It also gave a GI50 (UACC-257) of 70.9 µM, a GI50 (UACC-62) of 10 µM and a GI50 (OVCAR-3) of 10 µM. For the same compound, the GI50 (786-0) was 11.8 µM, the GI50 (A498) was 16.1 µM and the GI50 (ACHN) was 43.4 µM. The GI50 (CAKI-1) was 13.6 µM, the GI50 (TK-10) was 16.6 µM and the GI50 (UO-31) was 13.2 µM. The GI50 (NCI/ADR-RES) was 13.4 µM, the GI50 (MDA-MB-231/ATCC) was 11.6 µM and the “Log10 LC50 mean graph midpoint (MG_MID)” value [1] was −4.99. The “Log10 GI50 mean graph midpoint (MG_MID)” value [1] was −7.68, the GI50 ([1]; sixty cell lines in nine cell panels, read-out: GI50 against sixty cell lines in nine cell panels) was under 20 nM and the “Log10 TGI mean graph midpoint (MG_MID)” value [1] was −6.66. For the same compound, the “Change of DNA melting (ΔTm)” value [2] was “gradually increased”, the “ΔTμ (° C.) after incubation at 37° C. for 0 h” value [2] was 9.2 °C and the “ΔTμ (° C.) after incubation at 37° C. for 18 h” value [2] was 10.4 °C.
`COc1cc2c(cc1OCCCCN1CCN(c3ncnc4ccccc34)CC1)N=C[C@@H]1CCCN1C2=O` [Compound 5b] was tested, and the “ΔTμ (° C.) after incubation at 37° C. for 0 h” value [2] was 9.7 °C and the “ΔTμ (° C.) after incubation at 37° C. for 18 h” value [2] was 10.9 °C.
With `COc1cc2c(cc1O)N=CC1CCCN1C2=O` (centres unmarked) [DC-81, reference compound] the “ΔTμ (° C.) after incubation at 37° C. for 0 h” value [2] was 0.3 °C and the “ΔTμ (° C.) after incubation at 37° C. for 18 h” value [2] was 0.7 °C.
With `COc1cc2c(cc1OCCCCCCN1CCN(c3ncnc4ccccc34)CC1)N=C[C@@H]1CCCN1C2=O` [Compound 5d] the GI50 (CCRF-CEM) was 13.4 µM, the GI50 (HL-60 (TB)) was 19.5 µM and the GI50 (RPMI-8226) was 16.8 µM. For the same compound, the GI50 (NCI-H226) was 18.4 µM, the GI50 (NCI-H23) was 22.5 µM and the GI50 (NCI-H522) was 18.3 µM. It also gave a GI50 (HCT-116) of 14.6 µM, a GI50 (HCT-15) of 18.4 µM and a GI50 (SW-620) of 25.9 µM. It also gave a GI50 (SF-539) of 33.7 µM, a GI50 (U251) of 19.8 µM and a GI50 (LOX IMVI) of 15 µM. For the same compound, the GI50 (MALME-3M) was 36.2 µM, the GI50 (M14) was 18.8 µM and the GI50 (SK-MEL-5) was 23.3 µM. The GI50 (UACC-257) was 15.9 µM, the GI50 (UACC-62) was 22.5 µM and the GI50 (OVCAR-3) was 26.3 µM. The GI50 (786-0) was 14.9 µM, the GI50 (A498) was 22 µM and the GI50 (ACHN) was 46.1 µM. It also gave a GI50 (CAKI-1) of 12.9 µM, a GI50 (TK-10) of 31.4 µM and a GI50 (UO-31) of 15.2 µM. For the same compound, the GI50 (NCI/ADR-RES) was 18.7 µM, the GI50 (MDA-MB-231/ATCC) was 14.2 µM and the “Log10 LC50 mean graph midpoint (MG_MID)” value [1] was −4.96. The “Log10 GI50 mean graph midpoint (MG_MID)” value [1] was −6.49, the “Log10 TGI mean graph midpoint (MG_MID)” value [1] was −5.85 and the “Change of DNA melting (ΔTm)” value [2] was “gradually increased”. For the same compound, the “ΔTμ (° C.) after incubation at 37° C. for 0 h” value [2] was 10.6 °C and the “ΔTμ (° C.) after incubation at 37° C. for 18 h” value [2] was 12.2 °C.
